Target: human PAD4 (hPAD4) (Homo sapiens (Human), UniProt Q9UM07)
Experiment: RFMS Human PAD4 Functional Assay 1
Format: biochemical
Settings: RFMS assay 1; 5 nM hPAD4, 250 μM BAEE substrate, 50 μM calcium, 37° C.
Procedure, shortened: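 Recombinant hPAD4 (5 nM) was preincubated with compound (top 50 μM, 0.5% DMSO) for 30 min at 37 °C, then reacted with 250 μM BAEE for 90 min at 37 °C in pH 7.5 HEPES buffer with 50 μM calcium and 5 μM TPEN. Product was derivatized with phenyl glyoxal and quantified by RapidFire MS.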

Sequence of human PAD4 (hPAD4) (Q9UM07 whole entry): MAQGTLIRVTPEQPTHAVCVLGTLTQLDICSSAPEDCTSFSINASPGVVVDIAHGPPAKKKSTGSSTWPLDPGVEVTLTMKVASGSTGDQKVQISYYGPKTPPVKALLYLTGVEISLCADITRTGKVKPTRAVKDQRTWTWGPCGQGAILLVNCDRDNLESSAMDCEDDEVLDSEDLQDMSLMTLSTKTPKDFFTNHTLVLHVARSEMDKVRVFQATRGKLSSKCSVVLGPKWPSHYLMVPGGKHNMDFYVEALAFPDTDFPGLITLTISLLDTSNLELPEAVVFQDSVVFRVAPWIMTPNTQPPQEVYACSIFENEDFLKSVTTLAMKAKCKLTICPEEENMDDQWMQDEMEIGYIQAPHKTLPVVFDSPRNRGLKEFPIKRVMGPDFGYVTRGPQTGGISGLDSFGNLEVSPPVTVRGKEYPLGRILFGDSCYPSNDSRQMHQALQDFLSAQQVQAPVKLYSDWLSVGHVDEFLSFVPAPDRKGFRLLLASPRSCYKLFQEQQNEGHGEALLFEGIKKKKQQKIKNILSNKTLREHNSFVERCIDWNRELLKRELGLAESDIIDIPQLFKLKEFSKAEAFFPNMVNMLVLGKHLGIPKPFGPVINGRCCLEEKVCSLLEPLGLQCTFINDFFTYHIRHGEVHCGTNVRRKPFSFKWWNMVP

Row | SMILES | IC50
1 | COc1cc(C(=O)N2C[C@H](N)C[C@@H](F)C2)cn2nc(-c3cc4cccc(C5CCN(C(=O)C6CCCO6)CC5)c4n3CC3CC3)c(C)c12 (single isomer, unassigned) [Example 397] | 40 nM
2 | Cc1c(-c2cc3cc(F)cc(C4CCN(C(=O)C5CCCO5)CC4)c3n2CC2CC2)nn2cc(C(=O)N3CCC[C@@H](N)C3)ccc12 (single isomer, unassigned) [Example 488] | 250 nM
3 | Cc1c(-c2cc3cc(F)cc(C4CCN(C(=O)C5CCCO5)CC4)c3n2CC2CC2)nn2cc(C(=O)N3CCC[C@@H](N)C3)ccc12 (single isomer, unassigned) [Example 489] | 70 nM
4 | Cc1c(-c2cc3cc(F)cc(C4CCN(C(=O)C5CCCO5)CC4)c3n2CC2CC2)nn2cc(C(=O)N3C[C@H](N)C[C@@H](F)C3)ccc12 (single isomer, unassigned) [Example 490] | 150 nM
5 | Cc1c(-c2cc3cc(F)cc(C4CCN(C(=O)C5CCCO5)CC4)c3n2CC2CC2)nn2cc(C(=O)N3C[C@H](N)C[C@@H](F)C3)ccc12 (single isomer, unassigned) [Example 491] | 1310 nM
6 | COc1cc(C(=O)N2CCC[C@@H](N)C2)cn2nc(-c3cc4cccc(OCC5CC(=O)N(C)C5)c4n3CC3CC3)c(C)c12 (single isomer, unassigned) [Example 552] | 100 nM
7 | Cc1c(-c2cc3cccc(OCC4CNC(=O)C4)c3n2CC2CC2)nn2cc(C(=O)N3CCC[C@@H](N)C3)cc(F)c12 (single isomer, unassigned) [Example 566] | 10 nM
8 | Cc1c(-c2cc3cccc(OCC4CNC(=O)C4)c3n2CC2CC2)nn2cc(C(=O)N3C[C@H](N)C[C@@H](F)C3)cc(F)c12 (single isomer, unassigned) [Example 567] | 20 nM
9 | Cc1c(-c2cc3cccc(OCC4CNC(=O)C4)c3n2CC2CC2)nn2cc(C(=O)N3C[C@H](N)C[C@@H](F)C3)cc(F)c12 (single isomer, unassigned) [Example 572] | 80 nM
10 | Cc1c(-c2cc3cccc(OCC4CNC(=O)C4)c3n2CC2CC2)nn2cc(C(=O)N3C[C@H](N)C[C@@H](F)C3)ccc12 (single isomer, unassigned) [Example 573] | 110 nM
11 | Cc1c(-c2cc3cccc(OCC4CC(=O)N(C)C4)c3n2CC2CC2)nn2cc(C(=O)N3CCC[C@@H](N)C3)ccc12 (single isomer, unassigned) [Example 576] | 190 nM
12 | Cc1c(-c2cc3cccc(OCC4CC(=O)N(C)C4)c3n2CC2CC2)nn2cc(C(=O)N3C[C@H](N)C[C@@H](F)C3)ccc12 (single isomer, unassigned) [Example 577] | 150 nM
13 | Cc1c(-c2cc3cccc(OCC4CC(=O)N(C)C4)c3n2CC2CC2)nn2cc(C(=O)N3C[C@H](N)C[C@@H](F)C3)ccc12 (single isomer, unassigned) [Example 579] | 240 nM
14 | Cc1c(-c2cc3cccc(OCC4CNC(=O)C4)c3n2CC2CC2)nn2cc(C(=O)N3CCC[C@@H](N)C3)ccc12 (single isomer, unassigned) [Example 588] | 230 nM
15 | Cc1c(-c2cc3cccc(OCC4CNC(=O)C4)c3n2CC2CC2)nn2cc(C(=O)N3CCC[C@@H](N)C3)ccc12 (single isomer, unassigned) [Example 589] | 60 nM
16 | COc1cc(C(=O)N2C[C@H](N)C[C@@H](F)C2)cn2nc(-c3cc4ccnc(OCC5CNC(=O)C5)c4n3CC3CC3)c(C)c12 (single isomer, unassigned; isomer 1) [Example 601] | 30 nM
17 | COc1cc(C(=O)N2CC3CCC2[C@@H]3N)cn2nc(-c3cc4ccnc(OCC5CNC(=O)C5)c4n3CC3CC3)c(C)c12 (single isomer, unassigned; isomer 1) [Example 605] | 70 nM
18 | Cc1c(-c2cc3ccnc(OCC4CNC(=O)C4)c3n2CC2CC2)nn2cc(C(=O)N3C[C@H](N)C[C@@H](F)C3)ccc12 (single isomer, unassigned; isomer 1) [Example 614] | 60 nM
19 | Cc1c(-c2cc3ccnc(OCC4CNC(=O)C4)c3n2CC2CC2)nn2cc(C(=O)N3CCC[C@@H](N)C3)ccc12 (single isomer, unassigned; isomer 1) [Example 618] | 50 nM
20 | COc1cc(C(=O)N2C[C@H](N)C[C@@H](F)C2)cn2nc(-c3cc4ccnc(OCC5CNC(=O)C5)c4n3CC3CC3)c(C)c12 (single isomer, unassigned; isomer 2) [Example 602] | 30 nM
21 | COc1cc(C(=O)N2CCC[C@@H](N)C2)cn2nc(-c3cc4ccnc(OCC5CNC(=O)C5)c4n3CC3CC3)c(C)c12 (single isomer, unassigned; isomer 2) [Example 603] | 100 nM
22 | Cc1c(-c2cc3ccnc(OCC4CNC(=O)C4)c3n2CC2CC2)nn2cc(C(=O)N3CCC[C@@H](N)C3)ccc12 (single isomer, unassigned; isomer 2) [Example 619] | 40 nM
23 | COc1cc(C(=O)N2CC3CCC2[C@H]3N)cn2nc(-c3cc4ccnc(OC[C@H]5CCC(=O)N5)c4n3CC3CC3)c(C)c12 (stereo in doubt) [Example 607, (5R)-5-(((2-(6-((7S)-7-Amino-2-azabicyclo[2.2.1]heptane-2-carbonyl)-4-methoxy-3-methylpyrazolo[1,5-a]pyridin-2-yl)-1-(cyclopropylmethyl)-1H-pyrrolo[2,3-c]pyridin-7-yl)oxy)methyl)pyrrolidin-2-one] | 50 nM
24 | COc1cc(C(=O)N2CC3CCC2[C@@H]3N)cn2nc(-c3cc4ccc(-c5ccc6c(c5)C(=O)NC6)nc4n3CC3CC3)c(C)c12 (stereo partly drawn) [Example 3, 6-(2-(6-((7R)-7-Amino-2-azabicyclo[2.2.1]heptane-2-carbonyl)-4-methoxy-3-methylpyrazolo[1,5-a]pyridin-2-yl)-1-(cyclopropylmethyl)-1H-pyrrolo[2,3-b]pyridin-6-yl)isoindolin-1-one] | 60 nM
25 | COc1cc(C(=O)N2CC3CCC2[C@@H]3N)cn2nc(-c3cc4ccc(C)nc4n3CC3CC3)c(C)c12 (stereo partly drawn) [Example 4, ((7R)-7-Amino-2-azabicyclo[2.2.1]heptan-2-yl)(2-(1-(cyclopropylmethyl)-6-methyl-1H-pyrrolo[2,3-b]pyridin-2-yl)-4-methoxy-3-methylpyrazolo[1,5-a]pyridin-6-yl)methanone] | 68 nM

Further compounds by falling IC50, results first:

Row | IC50 | SMILES
26 | 380 nM | COc1cc(C(=O)N2CC3CCC2[C@@H]3N)cn2nc(-c3cc4ccc(Cl)nc4n3CC3CC3)c(C)c12 (stereo partly drawn) [Example 2, ((7R)-7-Amino-2-azabicyclo[2.2.1]heptan-2-yl)(2-(6-chloro-1-(cyclopropylmethyl)-1H-pyrrolo[2,3-b]pyridin-2-yl)-4-methoxy-3-methylpyrazolo[1,5-a]pyridin-6-yl)methanone]
27 | 280 nM | COc1cc(C(=O)N2CC3CCC2[C@@H]3N)cn2nc(-c3cc4cccnc4n3CC3CC3)c(C)c12 (stereo partly drawn) [Example 1, ((7R)-7-Amino-2-azabicyclo[2.2.1]heptan-2-yl)(2-(1-(cyclopropylmethyl)-1H-pyrrolo[2,3-b]pyridin-2-yl)-4-methoxy-3-methylpyrazolo[1,5-a]pyridin-6-yl)methanone]
28 | 190 nM | Cc1c(-c2cc3cccc(OCC4CC(=O)N(C)C4)c3n2CC2CC2)nn2cc(C(=O)N3CCC[C@@H](N)C3)ccc12 (single isomer, unassigned) [Example 578]
29 | 160 nM | COc1cc(C(=O)N2CCC[C@@H](N)C2)cn2nc(-c3cc4cccc(OCC5CC(=O)N(C)C5)c4n3CC3CC3)c(C)c12 (single isomer, unassigned) [Example 551]
30 | 140 nM | COc1cc(C(=O)N2CCC[C@@H](N)C2)cn2nc(-c3cc4cccc(OCC5CNC(=O)C5)c4n3CC3CC3)c(C)c12 (single isomer, unassigned) [Example 562]
31 | 110 nM | COc1cc(C(=O)N2CCC[C@@H](N)C2)cn2nc(-c3cc4cccc(C5CCN(C(=O)C6CC(O)C6)CC5)c4n3CC3CC3)c(C)c12 (single isomer, unassigned) [Example 396]
32 | 90 nM | COc1cc(C(=O)N2C[C@H](N)C[C@@H](F)C2)cn2nc(-c3cc4cccc(OCC5CC(=O)N(C)C5)c4n3CC3CC3)c(C)c12 (single isomer, unassigned) [Example 553]
33 | 70 nM | COc1cc(C(=O)N2C[C@H](N)C[C@@H](F)C2)cn2nc(-c3cc4cccc(OCC5CNC(=O)C5)c4n3CC3CC3)c(C)c12 (single isomer, unassigned) [Example 563]
34 | 70 nM | Cc1c(-c2cc3ccnc(OCC4CNC(=O)C4)c3n2CC2CC2)nn2cc(C(=O)N3C[C@H](N)C[C@@H](F)C3)ccc12 (single isomer, unassigned; isomer 2) [Example 615]
35 | 60 nM | COc1cc(C(=O)N2C[C@H](N)C[C@@H](F)C2)cn2nc(-c3cc4cccc(OCC5CC(=O)N(C)C5)c4n3CC3CC3)c(C)c12 (single isomer, unassigned) [Example 554]
36 | 50 nM | COc1cc(C(=O)N2CC3CCC2[C@@H]3N)cn2nc(-c3cc4ccnc(OCC5CNC(=O)C5)c4n3CC3CC3)c(C)c12 (single isomer, unassigned; isomer 2) [Example 606]
37 | 40 nM | COc1cc(C(=O)N2CCC[C@@H](N)C2)cn2nc(-c3cc4cccc(OCC5CNC(=O)C5)c4n3CC3CC3)c(C)c12 (single isomer, unassigned) [Example 564]
38 | 30 nM | Cc1c(-c2cc3cccc(OCC4CNC(=O)C4)c3n2CC2CC2)nn2cc(C(=O)N3CCC[C@@H](N)C3)cc(F)c12 (single isomer, unassigned) [Example 571]
39 | 30 nM | Cc1c(-c2cc3cccc(OCC4CNC(=O)C4)c3n2CC2CC2)nn2cc(C(=O)N3C[C@H](N)C[C@@H](F)C3)ccc12 (single isomer, unassigned) [Example 590]
40 | 30 nM | COc1cc(C(=O)N2CCC[C@@H](N)C2)cn2nc(-c3cc4ccnc(OCC5CNC(=O)C5)c4n3CC3CC3)c(C)c12 (single isomer, unassigned; isomer 1) [Example 591]
41 | 20 nM | COc1cc(C(=O)N2C[C@H](N)C[C@@H](F)C2)cn2nc(-c3cc4cccc(OCC5CNC(=O)C5)c4n3CC3CC3)c(C)c12 (single isomer, unassigned) [Example 565]
